Measured values as given in ChEMBL document CHEMBL1132501, “Synthesis and anti-Helicobacter pylori activity of FR182024, a new cephem derivative” (1999).
In brackets after ≈: the same amount, converted by molar mass.

Assays:
Format in all cases: functional
[1] = system: Helicobacter pylori; experiment: The compound was evaluated in vitro for the minimum inhibitory concentration against Helicobacter pylori (13001).
[2] = system: Helicobacter pylori; experiment: The compound was evaluated in vitro for the minimum inhibitory concentration against Helicobacter pylori (16021).
[3] = system: Helicobacter pylori; experiment: The compound was evaluated in vitro for the minimum inhibitory concentration against Helicobacter pylori (9005).
[4] = system: Helicobacter pylori; experiment: The compound was evaluated in vitro for the minimum inhibitory concentration against Helicobacter pylori (FP1757).
[5] = system: Mus musculus; experiment: The compound was evaluated in vivo for the therapeutic efficacy at 0.32 mg/kg in mouse infection model; 0/8
[6] = system: Mus musculus; experiment: The compound was evaluated in vivo for the therapeutic efficacy at 3.2 mg/kg in mouse infection model; 0/8
[7] = system: Mus musculus; experiment: The compound was evaluated in vivo for the therapeutic efficacy at 1.0 mg/kg in mouse infection model; 0/8
[8] = system: Mus musculus; experiment: The compound was evaluated in vivo for the therapeutic efficacy at 0.1 mg/kg in mouse infection model; 5/8
[9] = system: Mus musculus; experiment: The compound was evaluated in vivo for the therapeutic efficacy at 0.32 mg/kg in mouse infection model; 8/8
[10] = system: Mus musculus; experiment: The compound was evaluated in vivo for the therapeutic efficacy at 0.1 mg/kg in mouse infection model; 0/8
[11] = system: Mus musculus; experiment: The compound was evaluated in vivo for the therapeutic efficacy at 0.32 mg/kg in mouse infection model; 1/8
[12] = system: Mus musculus; experiment: The compound was evaluated in vivo for the therapeutic efficacy at 1.0 mg/kg in mouse infection model; 3/8
[13] = system: Mus musculus; experiment: The compound was evaluated in vivo for the therapeutic efficacy at 3.2 mg/kg in mouse infection model; 7/8

| MIC [1] | MIC [2] | MIC [3] | MIC [4] | Compound | Therapeutic efficacy [5] | Therapeutic efficacy [6] | Therapeutic efficacy [7] | Therapeutic efficacy [8] | Therapeutic efficacy [9] | Therapeutic efficacy [10] | Therapeutic efficacy [11] | Therapeutic efficacy [12] | Therapeutic efficacy [13] |
| --- | --- | --- | --- | --- | --- | --- | --- | --- | --- | --- | --- | --- | --- |
| 0.05 µg/mL (≈ 0.0668 µM) | 50 µg/mL (≈ 66.8 µM) | 0.2 µg/mL (≈ 0.267 µM) | 0.1 µg/mL (≈ 0.134 µM) | CC[C@H]1OC(=O)[C@H](C)[C@@H](O[C@H]2C[C@@](C)(OC)[C@@H](O)[C@H](C)O2)[C@H](C)[C@@H](O[C@@H]2O[C@H](C)C[C@H](N(C)C)[C@H]2O)[C@](C)(OC)C[C@@H](C)C(=O)[C@H](C)[C@@H](O)[C@]1(C)O [CLARITHROMYCIN] | 0 | 0 | 0 |  |  |  |  |  |  |
| 0.00078 µg/mL (≈ 0.00174 µM) | 0.0016 µg/mL (≈ 0.00357 µM) | 0.00625 µg/mL (≈ 0.0139 µM) | 0.00156 µg/mL (≈ 0.00348 µM) | Cc1nnc(SC2=C(C(=O)O)N3C(=O)[C@@H](NC(=O)Cc4ccccc4)[C@H]3SC2)s1 |  |  |  | 5 | 8 |  |  |  |  |

| Compound | MIC [1] | MIC [2] | MIC [3] | MIC [4] | Therapeutic efficacy [5] | Therapeutic efficacy [6] | Therapeutic efficacy [7] | Therapeutic efficacy [8] | Therapeutic efficacy [9] | Therapeutic efficacy [10] | Therapeutic efficacy [11] | Therapeutic efficacy [12] | Therapeutic efficacy [13] |
| --- | --- | --- | --- | --- | --- | --- | --- | --- | --- | --- | --- | --- | --- |
| CC1(C)S[C@@H]2[C@H](NC(=O)[C@H](N)c3ccc(O)cc3)C(=O)N2C1C(=O)O (single isomer, unassigned) [AMOXICILLIN] | 0.025 µg/mL (≈ 0.0684 µM) | 0.025 µg/mL (≈ 0.0684 µM) | 0.05 µg/mL (≈ 0.137 µM) | 0.0125 µg/mL (≈ 0.0342 µM) |  |  |  |  |  | 0 | 1 | 3 | 7 |
